Experimental data as given in BindingDB's records for doi:10.1073/pnas.0708281105 (Gsk, 2008).

Experiments:
Experiment in all cases: Receptor Tyrosine Kinase Inhibition Assay
Details in all cases: pH 7.5; 23 °C
[1] = molecular target: Epidermal growth factor receptor (Homo sapiens, UniProt P00533)
Procedure: (§1) Assays were performed in 96-well microtiter plates in reaction buffer containing biotinylated substrate, ATP/[gamma-33P]ATP, and purified kinase in the presence of test compounds. Reactions were terminated and transferred to MAPH phosphocellulose filter plates. The scintillation mixture was added to each well, and the assay was quantified by counting in a Packard Topcount (Packard Instrument Co.).

[2] = molecular target: Receptor tyrosine-protein kinase erbB-2 (Homo sapiens, UniProt P04626)
Receptor tyrosine-protein kinase erbB-2, sequence (P04626 whole entry): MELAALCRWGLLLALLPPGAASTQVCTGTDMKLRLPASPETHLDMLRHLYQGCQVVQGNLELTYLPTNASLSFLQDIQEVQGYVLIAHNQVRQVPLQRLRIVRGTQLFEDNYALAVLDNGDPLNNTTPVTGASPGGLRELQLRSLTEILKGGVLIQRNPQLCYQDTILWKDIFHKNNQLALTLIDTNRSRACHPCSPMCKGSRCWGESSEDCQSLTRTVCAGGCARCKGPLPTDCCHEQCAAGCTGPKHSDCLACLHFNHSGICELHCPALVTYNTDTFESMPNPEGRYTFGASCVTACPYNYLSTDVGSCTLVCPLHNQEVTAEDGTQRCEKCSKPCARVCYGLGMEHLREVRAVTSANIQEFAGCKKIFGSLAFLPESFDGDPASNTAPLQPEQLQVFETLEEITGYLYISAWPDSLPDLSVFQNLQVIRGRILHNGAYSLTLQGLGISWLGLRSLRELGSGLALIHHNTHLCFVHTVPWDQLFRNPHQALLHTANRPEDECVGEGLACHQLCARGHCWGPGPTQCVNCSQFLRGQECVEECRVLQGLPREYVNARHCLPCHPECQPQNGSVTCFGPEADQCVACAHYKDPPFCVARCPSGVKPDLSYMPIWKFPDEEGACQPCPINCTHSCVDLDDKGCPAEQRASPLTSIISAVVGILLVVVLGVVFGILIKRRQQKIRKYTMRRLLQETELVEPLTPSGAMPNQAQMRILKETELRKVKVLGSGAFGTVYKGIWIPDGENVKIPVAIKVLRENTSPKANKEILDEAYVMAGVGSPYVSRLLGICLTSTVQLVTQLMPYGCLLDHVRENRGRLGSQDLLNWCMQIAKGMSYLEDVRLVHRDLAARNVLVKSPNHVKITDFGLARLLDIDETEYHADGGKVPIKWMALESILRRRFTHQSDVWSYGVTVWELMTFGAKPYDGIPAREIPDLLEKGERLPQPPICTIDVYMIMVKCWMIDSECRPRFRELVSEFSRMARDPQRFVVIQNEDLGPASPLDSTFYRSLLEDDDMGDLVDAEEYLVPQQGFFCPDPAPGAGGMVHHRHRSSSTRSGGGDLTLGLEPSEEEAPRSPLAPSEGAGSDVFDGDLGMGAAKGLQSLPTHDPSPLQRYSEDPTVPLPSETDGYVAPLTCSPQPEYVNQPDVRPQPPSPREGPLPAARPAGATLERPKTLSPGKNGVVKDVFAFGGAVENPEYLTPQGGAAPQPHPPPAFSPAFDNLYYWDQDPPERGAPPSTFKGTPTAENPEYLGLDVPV
Procedure: as §1

[3] = molecular target: Receptor tyrosine-protein kinase erbB-4 (Homo sapiens, UniProt Q15303)
Receptor tyrosine-protein kinase erbB-4, sequence (Q15303 whole entry): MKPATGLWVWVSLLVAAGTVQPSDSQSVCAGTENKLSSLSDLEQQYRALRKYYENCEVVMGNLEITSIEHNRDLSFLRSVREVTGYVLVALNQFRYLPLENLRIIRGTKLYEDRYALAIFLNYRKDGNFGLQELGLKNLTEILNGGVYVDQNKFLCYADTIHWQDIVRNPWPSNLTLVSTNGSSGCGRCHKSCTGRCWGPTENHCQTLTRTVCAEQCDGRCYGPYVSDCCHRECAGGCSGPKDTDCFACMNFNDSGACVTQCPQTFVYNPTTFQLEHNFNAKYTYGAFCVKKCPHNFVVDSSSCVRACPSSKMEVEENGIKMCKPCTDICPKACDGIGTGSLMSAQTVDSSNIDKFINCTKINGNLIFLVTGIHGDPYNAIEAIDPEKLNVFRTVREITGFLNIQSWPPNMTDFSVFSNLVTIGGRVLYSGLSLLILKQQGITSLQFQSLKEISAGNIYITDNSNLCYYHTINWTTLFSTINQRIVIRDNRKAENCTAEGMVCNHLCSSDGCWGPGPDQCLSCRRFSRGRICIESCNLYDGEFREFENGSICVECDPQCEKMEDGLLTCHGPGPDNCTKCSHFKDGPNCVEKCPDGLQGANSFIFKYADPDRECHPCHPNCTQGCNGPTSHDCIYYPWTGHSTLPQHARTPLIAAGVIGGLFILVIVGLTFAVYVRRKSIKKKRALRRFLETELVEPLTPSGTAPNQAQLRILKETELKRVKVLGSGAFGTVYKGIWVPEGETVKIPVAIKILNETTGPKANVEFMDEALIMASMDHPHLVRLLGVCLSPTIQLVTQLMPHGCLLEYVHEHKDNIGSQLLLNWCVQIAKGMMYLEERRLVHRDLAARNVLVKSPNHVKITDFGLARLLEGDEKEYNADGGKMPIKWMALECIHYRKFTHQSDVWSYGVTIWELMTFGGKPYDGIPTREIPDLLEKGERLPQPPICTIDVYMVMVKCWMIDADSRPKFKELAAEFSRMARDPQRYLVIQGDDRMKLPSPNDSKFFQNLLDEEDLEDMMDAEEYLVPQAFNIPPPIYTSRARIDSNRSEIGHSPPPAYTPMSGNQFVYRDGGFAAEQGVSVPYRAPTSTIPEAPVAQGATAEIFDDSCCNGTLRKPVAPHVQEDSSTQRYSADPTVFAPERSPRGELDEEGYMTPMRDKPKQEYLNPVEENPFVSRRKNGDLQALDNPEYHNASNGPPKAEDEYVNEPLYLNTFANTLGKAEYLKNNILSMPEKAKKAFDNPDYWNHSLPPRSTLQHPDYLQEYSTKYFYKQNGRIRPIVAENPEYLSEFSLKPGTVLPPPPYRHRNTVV
Procedure: as §1

Epidermal growth factor receptor, sequence (P00533 whole entry): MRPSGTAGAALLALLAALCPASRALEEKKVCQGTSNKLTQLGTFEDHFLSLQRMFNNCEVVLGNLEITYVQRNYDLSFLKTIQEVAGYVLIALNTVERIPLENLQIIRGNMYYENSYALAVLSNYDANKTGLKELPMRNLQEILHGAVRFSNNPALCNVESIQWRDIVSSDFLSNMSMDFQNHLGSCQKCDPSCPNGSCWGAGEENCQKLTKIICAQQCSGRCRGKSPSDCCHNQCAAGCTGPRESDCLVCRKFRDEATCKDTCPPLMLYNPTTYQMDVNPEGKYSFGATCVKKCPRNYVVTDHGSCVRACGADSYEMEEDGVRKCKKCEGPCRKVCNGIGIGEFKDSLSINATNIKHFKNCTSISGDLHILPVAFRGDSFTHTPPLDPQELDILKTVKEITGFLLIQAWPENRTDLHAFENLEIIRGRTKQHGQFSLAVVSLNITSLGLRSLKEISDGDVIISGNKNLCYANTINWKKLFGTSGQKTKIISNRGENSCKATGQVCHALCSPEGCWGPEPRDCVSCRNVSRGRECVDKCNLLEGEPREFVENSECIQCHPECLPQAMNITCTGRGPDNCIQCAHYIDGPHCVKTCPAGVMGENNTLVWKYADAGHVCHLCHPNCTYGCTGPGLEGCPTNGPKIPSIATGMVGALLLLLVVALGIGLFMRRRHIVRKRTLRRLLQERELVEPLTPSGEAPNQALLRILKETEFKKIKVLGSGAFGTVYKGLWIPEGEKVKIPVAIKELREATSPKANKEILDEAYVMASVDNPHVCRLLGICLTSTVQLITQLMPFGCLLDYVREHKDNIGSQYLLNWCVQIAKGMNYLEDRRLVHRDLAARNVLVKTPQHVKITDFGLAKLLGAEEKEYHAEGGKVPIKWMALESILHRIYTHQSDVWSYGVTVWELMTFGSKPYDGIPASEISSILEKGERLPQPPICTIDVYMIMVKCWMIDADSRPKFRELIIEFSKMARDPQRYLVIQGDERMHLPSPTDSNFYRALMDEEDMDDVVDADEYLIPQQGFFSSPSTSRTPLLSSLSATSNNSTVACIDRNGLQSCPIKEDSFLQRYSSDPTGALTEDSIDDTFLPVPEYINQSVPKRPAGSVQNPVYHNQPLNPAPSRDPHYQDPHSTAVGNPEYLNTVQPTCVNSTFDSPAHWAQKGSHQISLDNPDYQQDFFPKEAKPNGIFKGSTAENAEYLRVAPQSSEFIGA

## C[C@H](N)C#Cc1cc2c(Nc3ccc(OCc4cccc(F)c4)c(Cl)c3)ncnc2s1 [6-[(3S)-3-aminobut-1-yn-1-yl]-N-{3-chloro-4-[(3-fluorophenyl)methoxy]phenyl}thieno[2,3-d]pyrimidin-4-amine]
[1]
  IC50: 69 nM
[2]
  IC50: 44 nM
[3]
  IC50: 638 nM

## C#Cc1cc2ncnc(Nc3ccc(OCc4cccc(F)c4)c(Cl)c3)c2s1 [N-{3-chloro-4-[(3-fluorophenyl)methoxy]phenyl}-6-ethynylthieno[3,2-d]pyrimidin-4-amine]
[1]
  IC50: 24 nM
[2]
  IC50: 12 nM

## Nc1cnc(C#Cc2cc3c(Nc4ccc(OCc5cccc(F)c5)c(Cl)c4)ncnc3s2)cn1 [5-{2-[4-({3-chloro-4-[(3-fluorophenyl)methoxy]phenyl}amino)thieno[2,3-d]pyrimidin-6-yl]ethynyl}pyrazin-2-amine]
[1]
  IC50: 372 nM
[2]
  IC50: 52 nM
[3]
  IC50: 1350 nM

## Fc1cccc(COc2ccc(Nc3ncnc4sc(C#C[C@H]5CCCN5)cc34)cc2Cl)c1 [N-{3-chloro-4-[(3-fluorophenyl)methoxy]phenyl}-6-{2-[(2R)-pyrrolidin-2-yl]ethynyl}thieno[2,3-d]pyrimidin-4-amine]
[1]
  IC50: 109 nM
[2]
  IC50: 54 nM
[3]
  IC50: 2300 nM

## C[C@H](N)C#Cc1cc2ncnc(Nc3ccc(OCc4cccc(F)c4)c(Cl)c3)c2s1 [6-[(3S)-3-aminobut-1-yn-1-yl]-N-{3-chloro-4-[(3-fluorophenyl)methoxy]phenyl}thieno[3,2-d]pyrimidin-4-amine]
[1]
  IC50: 64 nM
[2]
  IC50: 27 nM
[3]
  IC50: 412 nM

## Fc1cccc(COc2ccc(Nc3ncnc4cc(C#C[C@H]5CCCN5)sc34)cc2Cl)c1 [N-{3-chloro-4-[(3-fluorophenyl)methoxy]phenyl}-6-{2-[(2R)-pyrrolidin-2-yl]ethynyl}thieno[3,2-d]pyrimidin-4-amine]
[1]
  IC50: 7 nM
[2]
  IC50: 13 nM
[3]
  IC50: 66 nM

## Nc1cnc(C#Cc2cc3ncnc(Nc4ccc(OCc5cccc(F)c5)c(Cl)c4)c3s2)cn1 [5-{2-[4-({3-chloro-4-[(3-fluorophenyl)methoxy]phenyl}amino)thieno[3,2-d]pyrimidin-6-yl]ethynyl}pyrazin-2-amine]
[1]
  IC50: 47 nM
[2]
  IC50: 10 nM
[3]
  IC50: 254 nM

## C#Cc1cc2c(Nc3ccc(OCc4cccc(F)c4)c(Cl)c3)ncnc2s1 [N-{3-chloro-4-[(3-fluorophenyl)methoxy]phenyl}-6-ethynylthieno[2,3-d]pyrimidin-4-amine]
[1]
  IC50: 71 nM
[2]
  IC50: 19 nM
[3]
  IC50: 1720 nM
